Results published in patent US4503076A, “Vasodilator compound and pharmaceutical compositions therefrom” (Ausonia Farmaceutic s.r.l., priority 1981, dated 1985).
Read-outs that look alike come from different tables or passages of the source.

Experiments:
[1] = Solubility; format: physicochemical
[2] = test system: lower limb of rats (vascular zone); experiment: Vasodilator activity, perfusion of the lower limb of rats (Foster et al.); details: for inhibition at 50 µg/mL: read-out: Decrease in pressure, %
Text: (Foster et al., J.Pharmacol.Exp.Ther. 89,256,1947)
This study has been carried out in rats by perfusion of the lower limb while determining the variation of the resistance offered by the vascular zone after the perfusion by means of a suitable pressure transducer.
The vaso-constricting agent used is a solution containing a high content of potassium, together with papaverine, the latter being used for comparison purposes.

[3] = test system: renin; experiment: Hematic renin in rats with tied abdominal aorta; format: in vivo; details: 20 and 40 mg/kg oral, after 30 minutes
Method: (§1) In a second experiment, the substance AF 544 has been administered to rats which have been treated to cause an increase in blood pressure, specifically by tying the abdominal aorta. The administration has been carried out by the oral route in the dose of 20 and 40 mg/kg respectively. Measurements of diastolic pressure, systolic pressure and average pressure are made after 1, 15, and 30 minutes. After 30 minutes, for each group, determinations are made of the hematic renin and the hematic angiotensin. The dose of 20 mg/kg is found to reduce the diastolic pressure of 10-15% while the systolic pressure and the average pressure remain unchanged. On the other hand, the dose of 40 mg/kg is found to be effective on all three parameters, causing an average reduction of about 25%.

[4] = test system: angiotensin; experiment: Hematic angiotensin in rats with tied abdominal aorta; format: in vivo; details: 20 and 40 mg/kg oral, after 30 minutes
Method: as §1

[5] = test system: rats treated to cause an increase in blood pressure by tying the abdominal aorta; experiment: Antihypertensive activity in rats with tied abdominal aorta, blood pressure; format: in vivo
Method: as §1

[6] = test system: rats having genetically high blood pressure; experiment: Antihypertensive activity in rats having genetically high blood pressure; format: in vivo; details: 25 mg/kg orally
Method: There are utilized for this test rats having genetically high blood pressure. The rats are treated for three days with AF 544 in the dose of 25 mg/kg orally. After each treatment and specifically after 1, 4, 8 and 24 hours respectively, the systolic pressure of the animals is measured.

[7] = test system: anaesthesized cats; experiment: Effect on the circulation and on breathing of anaesthetized cats; format: in vivo
Method: For this test, six cats of both sexes are used. The animals had been brought to a state of anaesthesia by means of urethane. The substance AF 544 is administered by the endovenous route in the dose of 0.1-1 mg/kg. The following parameters have been studied: average arterial pressure, amplitude and respiratory frequency, effect on pressure responses to various agonists, (acetylcholine, adrenaline, occlusion of the carotid artery, and vagal stimulation).

[8] = test system: isolated small intestine (ileum) of guinea pigs; experiment: Spasmolytic activity in vitro on the isolated small intestine (ileum) of guinea pigs, barium chloride as agonist; details: 10^-6 g/cc; for % inhibition: incubation 1 minute, BaCl2 2.10^-6 g/cc
Method: The tests are carried out in vitro utilizing the isolated small intestine of guinea pigs. As agonist, there is used barium chloride in the dose of 2.10^-6 g/cc. The substance AF 544 and papaverine, which is a substance having well-known spasmolytic activity, are tested in the same concentration of 10^-6 g/cc.

[9] = test system: rats having normal blood pressure; experiment: Hypotensive activity in rats having normal blood pressure; format: in vivo; details: for Time of maximum hypotensive effect: i.p., rats with normal blood pressure
Method: The product has been administered by the intraperitoneal route to rats having normal blood pressure in the dose of 10 and 25 mg/kg. The systolic pressure of the animals has been measured 1, 4, and 24 hours respectively after the treatment using hydralazine in the dose of 1 mg/kg intraperitoneally for comparison. […] When the substance is administered in the dose of 25 mg/kg, the decrease in the systolic pressure is 2.5 times the decrease caused by hydralazine administered in the dose of 1 mg/kg.

[10] = Acute toxicity (DL50) in mice; details: mouse, in vivo
Text: The DL50 has been determined in mice by the oral as well as intraperitoneal route.

[11] = perfused rat lower limb, dose 5.10^-5 g/cc, high-potassium vasoconstriction

CC(=N)Nc1c(Cl)cccc1Cl
Solubility in water ([1]; in water): soluble in water

CC(=N)Nc1c(Cl)cccc1Cl [AF 544, N-(2,6-dichlorophenyl)acetamidine]
Vasodilator activity (in words) ([2]; compared with papaverine at equal dose): substantial vasodilator activity, which is only slightly inferior to that of papaverine at equal dose
Decrease in pressure, mm Hg ± e.s [2, 11]: 60 ± 3.2 mm Hg
inhibition at 50 µg/mL [2, 11]: 27.5%
Activity of renin [3]: increases in proportion to the dose of AF 544
Quantity of angiotensin [4]: an increase in the quantity of angiotensin occurs, which is inversely proportional to the dose of AF 544
Effect on average pressure ([5]; 20 mg/kg oral): unchanged
Effect on systolic pressure ([5]; 20 mg/kg oral): unchanged
Reduction of diastolic pressure ([5]; 20 mg/kg oral): 10-15%
Average reduction of all three parameters (diastolic, systolic and average pressure) ([5]; 40 mg/kg oral): about 25%
Solubility in common organic solvents ([1]; by heating, common organic solvents): soluble by heating in common organic solvents
Time of maximum decrease of pressure [6]: between the fourth and eighth hour
Percentage variation of (systolic) pressure with respect to the basal values of the first day ([6]; day 1, 1 hour): -5%
Percentage variation of (systolic) pressure with respect to the basal values of the first day ([6]; day 1, 4 hours): -20%
Percentage variation of (systolic) pressure with respect to the basal values of the first day ([6]; day 1, 8 hours): -18%
Percentage variation of (systolic) pressure with respect to the basal values of the first day ([6]; day 1, 24 hours): -19%
Percentage variation of (systolic) pressure with respect to the basal values of the first day ([6]; day 2, 1 hour): -26%
Percentage variation of (systolic) pressure with respect to the basal values of the first day ([6]; day 2, 4 hours): -20%
Percentage variation of (systolic) pressure with respect to the basal values of the first day ([6]; day 2, 8 hours): -27%
Percentage variation of (systolic) pressure with respect to the basal values of the first day ([6]; day 2, 24 hours): -28%
Percentage variation of (systolic) pressure with respect to the basal values of the first day ([6]; day 3, 1 hour): -22%
Percentage variation of (systolic) pressure with respect to the basal values of the first day ([6]; day 3, 4 hours): -11%
Percentage variation of (systolic) pressure with respect to the basal values of the first day ([6]; day 3, 8 hours): -15%
Percentage variation of (systolic) pressure with respect to the basal values of the first day ([6]; day 3, 24 hours): -12%
Decrease of pressure at the twenty-fourth hour (in words) ([6]; relative to the maximum at 4-8 hours): remaining about the same during the twenty-fourth hour
Effect in % on pressure response to acetylcholine ([7]; 0.1 mg/kg i.v.): +5.0%
Effect in % on pressure response to adrenaline ([7]; 0.1 mg/kg i.v.): -25.6%
Effect in % on pressure response to carotid occlusion ([7]; 0.1 mg/kg i.v.): +3.5%
Effect in % on pressure response to vagal stimulation ([7]; 0.1 mg/kg i.v.): +11.5%
Effect on arterial pressure, % ([7]; 0.1 mg/kg i.v.): -13.9%
Effect on arterial pressure, mm Hg ± e.s ([7]; 0.1 mg/kg i.v.): -12.5 mm Hg
Respiration, amplitude % ([7]; 0.1 mg/kg i.v.): +50.9%
Respiration, frequency % ([7]; 0.1 mg/kg i.v.): +31.4%
Transitory hypotension ([7]; 0.1 mg/kg intravenously): 13.9%
Effect in % on pressure response to acetylcholine ([7]; 1 mg/kg i.v.): +4.5%
Effect in % on pressure response to adrenaline ([7]; 1 mg/kg i.v.): +4.0%
Effect in % on pressure response to carotid occlusion ([7]; 1 mg/kg i.v.): +2.5%
Effect in % on pressure response to vagal stimulation ([7]; 1 mg/kg i.v.): +20.4%
Effect on arterial pressure, % ([7]; 1 mg/kg i.v.): -46.0%
Effect on arterial pressure, mm Hg ± e.s ([7]; 1 mg/kg i.v.): -36.7 mm Hg
Respiration, amplitude % ([7]; 1 mg/kg i.v.): +16.1%
Respiration, frequency % ([7]; 1 mg/kg i.v.): -8.5%
Transitory hypotension ([7]; 1 mg/kg intravenously): 46.0%
Variations of the other parameters observed (in words) ([7]; 0.1-1 mg/kg i.v., respiration, responses to agonists): small and statistically they are not significant
Spasmolytic activity (in words) ([8]; efficacy compared with papaverine in the same concentration): high spasmolytic activity with an efficacy which is statistically analogous to that of papaverine in the same concentration
% inhibition [8]: 49.8 ± 7.44%
Percentage variation of systolic pressure with respect to the basal values ([9]; 10 mg/kg i.p., 1 hour): -1.5 ± 1.8%
Percentage variation of systolic pressure with respect to the basal values ([9]; 10 mg/kg i.p., 4 hours): -13.1 ± 6.8%
Percentage variation of systolic pressure with respect to the basal values ([9]; 25 mg/kg i.p., 1 hour): -6.6 ± 13.4%
Percentage variation of systolic pressure with respect to the basal values ([9]; 25 mg/kg i.p., 4 hours): -46.2 ± 3.4%
Percentage variation of systolic pressure with respect to the basal values ([9]; 25 mg/kg i.p., 24 hours): -2.2 ± 2.8%
Dose dependence of hypotensive activity ([9]; 10 and 25 mg/kg i.p.): depends on the dose
Decrease in systolic pressure relative to the decrease caused by hydralazine ([9]; AF 544 25 mg/kg i.p. vs hydralazine 1 mg/kg i.p.): 2.5 times
Time of maximum hypotensive effect [9]: reaches the maximum effect during the fourth hour
LD50 ([10]; ip): 170 mg/kg
LD50 ([10]; po, orally): 420 mg/kg

NNc1nncc2ccccc12 [HYDRALAZINE, hydralazine, reference compound]
Percentage variation of systolic pressure with respect to the basal values ([9]; 1 mg/kg i.p., 1 hour): +21.0 ± 4.9%
Percentage variation of systolic pressure with respect to the basal values ([9]; 1 mg/kg i.p., 4 hours): -18.0 ± 3.1%
Percentage variation of systolic pressure with respect to the basal values ([9]; 1 mg/kg i.p., 24 hours): -7.5 ± 7.8%
Time of maximum hypotensive effect [9]: reaches the maximum even during the first hour

COc1ccc(Cc2nccc3cc(OC)c(OC)cc23)cc1OC [PAPAVERINE, papaverine, reference compound]
inhibition at 50 µg/mL ([2]; Rattus norvegicus): 39.3%
Decrease in pressure, mm Hg ± e.s [2, 11]: 82 ± 13.6 mm Hg
% inhibition [8]: 73.7 ± 8.09%
